Source: patent US9803002B2, “Anti-wall teichoic antibodies and conjugates” (Genentech, Inc., priority 2013, dated 2017)
Values after ≈ are worked out from the molar mass of the structure shown. Read-outs that look alike come from different tables or passages of the source. The star is where a group is joined. Propanoyl(3-maleimido) = O=C1C=CC(=O)N1CCC(=O)*

Key:
staphopain A = target: T1, staphopain A (Staphylococcus aureus, UniProt P81297); type: biochemical; conditions: for Percent cleavage pH 7.2, Staphopain A: PBS pH 7.2, 2 hours at 37° C.; for Percent cleavage pH 7.2, Staphopain A / Cleavage product, Staphopain A: LC-MS
T1 sequence (P81297 215-388): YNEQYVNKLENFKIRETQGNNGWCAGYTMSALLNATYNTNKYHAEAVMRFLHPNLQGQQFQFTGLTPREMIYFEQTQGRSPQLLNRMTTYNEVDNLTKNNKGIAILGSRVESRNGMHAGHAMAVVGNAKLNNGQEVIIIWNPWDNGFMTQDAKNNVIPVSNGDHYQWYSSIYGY
Protocol: Fractions from each chromatography step were analyzed for activity, and 100 ul was used regardless of protein concentration. Samples were incubated overnight at 37° C. and subsequently analyzed by LC-MS to identify fractions where protease cleavage of the linker-antibiotic had occurred. Pooled active fractions from the Q Sepharose FF chromatography were measured to have a total protein concentration of 14 mg/ml. 200 μg of the pool was diluted to 2 mg/ml in PBS and was incubated with and without N-ethylmaleimide (NEM, Sigma) at a concentration of 0.1 mM final. Samples were incubated at room temperature for 1 hour. […] At 2 hours, samples were analyzed by LC-MS to identify whether protease cleavage of the linker-antibiotic had occurred. About 50 ul of the active fractions from SEC were incubated with 0.1 mM Alexa Fluor 488 C5 maleimide (Invitrogen) for 1 hour regardless of protein concentration for labeling. Cleavage assays with purified proteases were performed by incubating 5 uM of the thioFAB conjugate with 50 nM protease in a final volume of 100 ul. Assays were either performed in PBS pH 7.2, 4 mM L-Cys, 2.5 mM EDTA or 100 mM Sodium Citrate pH 5, 100 mM NaCl, 4 mM L-Cys, 2.5 mM EDTA. Samples were incubated for 2 hours at 37° C. At 2 hours, cleavage reactions were quenched by diluting 1:1 with 1% TFA. Samples were subsequently run on LC-MS to determine percent linker cleavage. Percent cleavage was determined by integrating the A280 chromatograms of the cleaved and intact species.
(§1) 5 μM of thioFAB 4497 MP-LAFGA-QSY7(“core peptide” disclosed as SEQ ID NO: 135) and thioFAB 4497 MP-LAFAA-QSY7 (“core peptide” disclosed as SEQ ID NO: 136) (FIG. 30) were incubated with 50 nM of protease in PBS pH 7.2, 4 mM L-Cys, 2.5 mM EDTA for 2 hours at 37° C. At 2 hours, cleavage reactions were quenched by diluting 1:1 with 1% TFA. Samples were subsequently run on LC-MS to determine percent linker cleavage.
5 μM of AAC-193 was incubated with 50 nM of protease in either PBS pH 7.2, 4 mM L-Cys, 2.5 mM EDTA or 100 mM Sodium Citrate pH 5, 100 mM NaCl, 4 mM L-Cys, 2.5 mM EDTA for 2 hours at 37° C. At 2 hours, cleavage reactions were quenched by diluting 1:1 with 1% TFA. Samples were subsequently run on LC-MS to determine percent linker cleavage.

human cathepsin B = human cathepsin B (Homo sapiens, UniProt P07858); experiment: Linker cleavage assay with purified protease; type: biochemical; conditions: for Percent cleavage pH 7.2, Cathepsin B: PBS pH 7.2, 2 hours at 37° C.; for Percent cleavage pH 7.2, Cathepsin B / Cleavage product, Cathepsin B: LC-MS
Protocol: The experimental mal-peptide-QSY7 linkers were conjugated to THIOFAB S4497 to evaluate the cleavability of these linkers.
Fractions from each chromatography step were analyzed for activity, and 100 ul was used regardless of protein concentration. Samples were incubated overnight at 37° C. and subsequently analyzed by LC-MS to identify fractions where protease cleavage of the linker-antibiotic had occurred. Pooled active fractions from the Q Sepharose FF chromatography were measured to have a total protein concentration of 14 mg/ml. 200 μg of the pool was diluted to 2 mg/ml in PBS and was incubated with and without N-ethylmaleimide (NEM, Sigma) at a concentration of 0.1 mM final. Samples were incubated at room temperature for 1 hour. […] At 2 hours, samples were analyzed by LC-MS to identify whether protease cleavage of the linker-antibiotic had occurred. About 50 ul of the active fractions from SEC were incubated with 0.1 mM Alexa Fluor 488 C5 maleimide (Invitrogen) for 1 hour regardless of protein concentration for labeling. Cleavage assays with purified proteases were performed by incubating 5 uM of the thioFAB conjugate with 50 nM protease in a final volume of 100 ul. Assays were either performed in PBS pH 7.2, 4 mM L-Cys, 2.5 mM EDTA or 100 mM Sodium Citrate pH 5, 100 mM NaCl, 4 mM L-Cys, 2.5 mM EDTA. Samples were incubated for 2 hours at 37° C. At 2 hours, cleavage reactions were quenched by diluting 1:1 with 1% TFA. Samples were subsequently run on LC-MS to determine percent linker cleavage. Percent cleavage was determined by integrating the A280 chromatograms of the cleaved and intact species. The antibiotic or chromophore moieties added on the C-terminus of the linkers add significant hydrophobicity, such that thioFAB with intact linkers and thioFAB with cleaved linkers are baseline resolved.
as §1

staphopain B = target: T2, staphopain B (Staphylococcus aureus, UniProt P0C1S6); type: biochemical; conditions: for Percent cleavage pH 7.2, Staphopain B: PBS pH 7.2, 2 hours at 37° C.; for Percent cleavage pH 7.2, Staphopain B / Cleavage product, Staphopain B: LC-MS
T2 construct: purchased Sigma-Aldrich S3951
T2 sequence (P0C1S6 220-393): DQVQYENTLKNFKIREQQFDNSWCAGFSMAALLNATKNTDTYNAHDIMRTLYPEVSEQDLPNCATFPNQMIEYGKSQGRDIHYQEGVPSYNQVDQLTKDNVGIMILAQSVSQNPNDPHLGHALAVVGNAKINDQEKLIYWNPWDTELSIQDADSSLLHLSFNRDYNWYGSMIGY
Protocol: Cleavage assays with purified proteases were performed by incubating 5 uM of the thioFAB conjugate with 50 nM protease in a final volume of 100 ul. Assays were either performed in PBS pH 7.2, 4 mM L-Cys, 2.5 mM EDTA or 100 mM Sodium Citrate pH 5, 100 mM NaCl, 4 mM L-Cys, 2.5 mM EDTA. Samples were incubated for 2 hours at 37° C. At 2 hours, cleavage reactions were quenched by diluting 1:1 with 1% TFA. Samples were subsequently run on LC-MS to determine percent linker cleavage. Percent cleavage was determined by integrating the A280 chromatograms of the cleaved and intact species. The antibiotic or chromophore moieties added on the C-terminus of the linkers add significant hydrophobicity, such that thioFAB with intact linkers and thioFAB with cleaved linkers are baseline resolved.
At 2 hours, cleavage reactions were quenched by diluting 1:1 with 1% TFA. Samples were subsequently run on LC-MS to determine percent linker cleavage.

[1] = clinically achievable serum levels; cited from earlier work
[2] = test system: MRSA (NRS384 strain of USA300); experiment: MIC determinations for intracellular bacteria inside mouse peritoneal macrophages; type: cell-based, Staphylococcus aureus; conditions: for MIC: Staphylococcus aureus, read-out: Intracellular MRSA MIC
[3] = test system: MRSA (NRS384 strain of USA300); experiment: MIC determinations for extracellular bacteria; conditions: Staphylococcus aureus, read-out: Extracellular MRSA MIC
Protocol: Dilutions of the antibiotic were made in quadruplicate in 96 well culture dishes. MRSA (NRS384 strain of USA300) was taken from an exponentially growing culture and diluted to 1×10^4 CFU/mL. Bacteria was cultured in the presence of antibiotic for 18-24 hours with shaking at 37° C. and bacterial growth was determined by reading the Optical Density (OD) at 630 nM. The MIC was determined to be the dose of antibiotic that inhibited bacterial growth by >90%.

MRSA [4] = conditions: TSB media; vancomycin 2 and 20 μg/mL, rifampin 0.02 and 0.2 μg/mL
MRSA [5] = experiment: Intravenous infection model in CB17.SCID mice; type: in vivo, mouse; conditions: 50 mg/Kg AAC or 0.5 mg/Kg antibiotic, kidneys 4 days after infection
Protocol: Mice were sacrificed 4 days after infection and the total number of surviving bacteria per mouse (2 kidneys pooled) was determined by plating.
7 week old female mice were used for all in vivo experiments and infections were carried out by intravenous injection into the tail vein. A/J mice (Jackson Lab) were infected with a dose of 2×10^6 CFU. […] For studies examining the role of competing human IgG (SCID IVIG model), CB17.SCID mice (Charles River Laboratories, Hollister, Calif.) were reconstituted with GammaGard S/D IGIV Immune Globulin (ASD Healthcare, Brooks Ky.) using a dosing regimen optimized to achieve constant serum levels of >10 mg/mL of human IgG. IGIV was administered with an initial intravenous dose of 30 mg per mouse followed by a second dose of 15 mg/mouse by intraperitoneal injection after 6 hours, and subsequent daily dosings of 15 mg per mouse by intraperitoneal injection for 3 consecutive days. Mice were infected 4 hours after the first dose of IGIV with 2×10^7 CFU of MRSA diluted in phosphate buffered saline by intravenous injection. Mice that received vancomycin were treated with twice daily intraperitoneal injections of 100 mg/Kg of vancomycin starting between 6 and 24 hours post infection for the duration of the study. […]

[6] = MRSA inside mouse peritoneal macrophages, antibiotics added 1 day after infection, survival assessed 24 hours later
[7] = 5 μM conjugate, 50 nM protease, Sodium Citrate pH 5, 2 hours at 37° C.
[8] = listed as MP-LAFG-piperazino-rifamycin

Row | Molecule | Percent cleavage pH 7.2, Staphopain A (staphopain A; 5 μM conjugate, 50 nM protease) [%] | Cleavage product, Staphopain A (staphopain A) | Percent cleavage pH 7.2, Cathepsin B (human cathepsin B; 5 μM conjugate, 50 nM protease) [%] | Cleavage product, Cathepsin B (human cathepsin B) | Percent cleavage pH 7.2, Staphopain B (staphopain B; 5 μM conjugate, 50 nM protease) [%] | Cleavage product, Staphopain B (staphopain B) | Serum Cmax [1] [ng/mL] | MIC [3] [µg/mL] | other results
1 | MP-LAFAA-QSY7: maleimido-propionic-Leu-Ala-Phe-Ala-Ala linker with QSY7 as antibiotic surrogate, tested conjugated to thioFAB S4497 ({Propanoyl(3-maleimido)}-LAFAA-QSY7; also: conjugated to thioFAB S4497) | 23 | A-QSY7 | 100 | A-QSY7, and QSY7 | 100 | A-QSY7 | – | – | –
2 | CO[C@H]1/C=C/O[C@@]2(C)Oc3c(C)c(O)c4c(O)c(c(/C=N/N5CCN(C)CC5)c(O)c4c3C2=O)NC(=O)/C(C)=C\C=C\[C@H](C)[C@H](O)[C@@H](C)[C@@H](O)[C@@H](C)[C@H](OC(C)=O)[C@@H]1C [Rifampicin] | – | – | – | – | – | – | 20000 | 0.004 (≈ 0.00486 µM) | MIC [2, 6]: > 20 µg/mL; bacteria remained viable during the first two hours of antibiotic treatment (MRSA [4]): 90%; loss in viable bacteria by 5 hours (MRSA [4]): 100 fold
3 | CO[C@H]1/C=C/O[C@@]2(C)Oc3c(C)c(O)c4c(=O)c(c5oc6cc(N7CCN(C(=O)OCc8ccc(NC(=O)CNC(=O)[C@H](Cc9ccccc9)NC(=O)[C@H](C)NC(=O)[C@H](CC(C)C)NC(=O)CCN9C(=O)C=CC9=O)cc8)CC7)cc(O)c6nc-5c4c3C2=O)NC(=O)/C(C)=C\C=C\[C@H](C)[C@H](O)[C@@H](C)[C@@H](O)[C@@H](C)[C@H](OC(C)=O)[C@@H]1C [LA-104, MP-LAFG-PABC-(piperazinoBOR)] | 46 | piperazino- | 64 | Phe-Gly-piperazino-rifamycin | 100 | piperazino- | – | – | Percent cleavage pH 5, Staphopain A (staphopain A; [7]): 100%; Cleavage product, Staphopain A (staphopain A; [8]): free rifamycin; Percent cleavage pH 5, Cathepsin B (human cathepsin B; [7]): 100%; Percent cleavage pH 5, Staphopain B (staphopain B; [7]): 100%; Cleavage product, Staphopain B (staphopain B; [8]): free rifamycin
4 | dimethylpiperidyl benzoxazino rifamycin [dimethyl-pipBOR] | – | – | – | – | – | – | – | – | killing intracellular MRSA when tested as free antibiotics [2]: more potent than rifampicin; efficacy when given 1 day post infection (MRSA [5]): failed to clear the infection
5 | MP-LAFGA-QSY7: maleimido-propionic-Leu-Ala-Phe-Gly-Ala linker with QSY7 as antibiotic surrogate, tested conjugated to thioFAB S4497 ({Propanoyl(3-maleimido)}-LAFGA-QSY7; also: conjugated to thioFAB S4497) | 38 | A-QSY7 | 100 | A-QSY7 | 100 | A-QSY7 | – | – | –
6 | piperidyl benzoxazino rifamycin [pipBOR] | – | – | – | – | – | – | – | – | killing intracellular MRSA when tested as free antibiotics [2]: more potent than rifampicin
7 | CCCCCCCCCC(=O)N[C@@H](Cc1c[nH]c2ccccc12)C(=O)N[C@H](CC(N)=O)C(=O)N[C@@H](CC(=O)O)C(=O)N[C@@H]1C(=O)NCC(=O)N[C@@H](CCCN)C(=O)N[C@@H](CC(=O)O)C(=O)N[C@H](C)C(=O)N[C@@H](CC(=O)O)C(=O)NCC(=O)N[C@H](CO)C(=O)N[C@@H]([C@H](C)CC(=O)O)C(=O)N[C@@H](CC(=O)c2ccccc2N)C(=O)O[C@@H]1C [Daptomycin] | – | – | – | – | – | – | 80000 | 4 (≈ 2.47 µM) | MIC [2, 6]: > 100 µg/mL
8 | CC(=O)NC[C@H]1CN(c2ccc(N3CCOCC3)c(F)c2)C(=O)O1 [Linezolid] | – | – | – | – | – | – | 10000 | 0.3 (≈ 0.889 µM) | MIC ([2]; 24 h): > 20 µg/mL
